From BigSolDB 2.1

Conditions: in ethyl acetate, 298.15 K
For O=c1c(O)c(-c2ccc(O)c(O)c2)oc2cc(O)cc(O)c12, the solubility (mole fraction) was 0.00223. With Oc1ccc(/C=C/c2cc(O)cc(O)c2)cc1 the solubility (mole fraction) was 0.00895. Work on OC[C@H]1O[C@@H](Oc2cc(O)cc(/C=C/c3ccc(O)cc3)c2)[C@H](O)[C@@H](O)[C@@H]1O yielded a solubility (mole fraction) of 6.73e-05. In the case of O=c1c(O)c(-c2ccc(O)cc2)oc2cc(O)cc(O)c12, the solubility (mole fraction) is reported as 0.00452.

Same assay, conditions: in methanol, 298.15 K
In the case of O=c1c(O)c(-c2ccc(O)c(O)c2)oc2cc(O)cc(O)c12, the solubility (mole fraction) is reported as 0.00144. Oc1ccc(/C=C/c2cc(O)cc(O)c2)cc1 gave a solubility (mole fraction) of 0.0189. OC[C@H]1O[C@@H](Oc2cc(O)cc(/C=C/c3ccc(O)cc3)c2)[C@H](O)[C@@H](O)[C@@H]1O gave a solubility (mole fraction) of 0.0086. O=c1c(O)c(-c2ccc(O)cc2)oc2cc(O)cc(O)c12 showed a solubility (mole fraction) of 0.00324.

Same assay, conditions: in n-butyl acetate, 298.15 K
Work on O=c1c(O)c(-c2ccc(O)c(O)c2)oc2cc(O)cc(O)c12 yielded a solubility (mole fraction) of 0.00184. For Oc1ccc(/C=C/c2cc(O)cc(O)c2)cc1, the solubility (mole fraction) was 0.00463. With OC[C@H]1O[C@@H](Oc2cc(O)cc(/C=C/c3ccc(O)cc3)c2)[C@H](O)[C@@H](O)[C@@H]1O the solubility (mole fraction) was 1.96e-05. For O=c1c(O)c(-c2ccc(O)cc2)oc2cc(O)cc(O)c12, the solubility (mole fraction) was 0.0024.

Same assay, conditions: in n-propyl acetate, 298.15 K
Compound O=c1c(O)c(-c2ccc(O)c(O)c2)oc2cc(O)cc(O)c12 has a solubility (mole fraction) of 0.0019. For Oc1ccc(/C=C/c2cc(O)cc(O)c2)cc1, the solubility (mole fraction) was 0.00596. In the case of OC[C@H]1O[C@@H](Oc2cc(O)cc(/C=C/c3ccc(O)cc3)c2)[C@H](O)[C@@H](O)[C@@H]1O, the solubility (mole fraction) is reported as 3.37e-05. O=c1c(O)c(-c2ccc(O)cc2)oc2cc(O)cc(O)c12 showed a solubility (mole fraction) of 0.00275.
